From the Deep4Chem optical property database
Each block holds one molecule with its values, some of them ahead of it.

Test: photoluminescence quantum yield (fraction); solvent given as SMILES

photoluminescence quantum yield (in CCCCCC): 0.45 | photoluminescence quantum yield (in ClCCl): 0.11
SMILES: CC(C)[Si](C#Cc1c2cc3ccccc3cc2c(C#C[Si](C(C)C)(C(C)C)C(C)C)c2nc3cc4c(cc3nc12)C1c2ccccc2C4c2ccccc21)(C(C)C)C(C)C

photoluminescence quantum yield (in C1CCCCC1): 0.16 | photoluminescence quantum yield (in CC#N): 0.4 | photoluminescence quantum yield (in CCO): 0.52 | photoluminescence quantum yield (in CCOC(C)=O): 0.5 | photoluminescence quantum yield (in O): 0.51
SMILES: Cc1oc(-c2ccccc2)nc1C(=O)O

SMILES: COc1ccc(C2=C(c3ccc(-c4ccccc4)cc3)C(c3ccccc3)=[N+]3C2=Nc2c(-c4ccc(OC)cc4)c(-c4ccc(-c5ccccc5)cc4)c(-c4ccccc4)n2[B-]3(F)F)cc1
photoluminescence quantum yield (in Cc1ccccc1): 0.01

photoluminescence quantum yield (in C1CCCCC1): 0.39 | photoluminescence quantum yield (in CC#N): 0.13 | photoluminescence quantum yield (in ClCCl): 0.24
SMILES: O=S1(=O)c2ccc(-c3c4ccccc4cc4ccccc34)cc2-c2cc(-c3c4ccccc4cc4ccccc34)ccc21

photoluminescence quantum yield (in C1CCOC1): 0.0077
SMILES: C[P+](c1c2ccccc2cc2ccccc12)(c1c2ccccc2cc2ccccc12)c1c2ccccc2cc2ccccc12

photoluminescence quantum yield (in ClC(Cl)Cl): 0.76
SMILES: CCCN1c2ccccc2Sc2cc(/C=C\c3cc(=O)oc4ccc(C)cc34)ccc21

SMILES: F[B-]1(F)OC(c2ccccc2)=Nc2sc(-c3ccccc3)n[n+]21
photoluminescence quantum yield (in C1CCOC1): 0.02 | photoluminescence quantum yield (in CCO): 0.01 | photoluminescence quantum yield (in CCOC(C)=O): 0.01 | photoluminescence quantum yield (in CN(C)C=O): 0.01 | photoluminescence quantum yield (in Cc1ccccc1): 0.06 | photoluminescence quantum yield (in ClC(Cl)Cl): 0.05 | photoluminescence quantum yield (in ClCCl): 0.03

photoluminescence quantum yield (in ClCCl): 0.06
SMILES: CC(C)[Si](C#Cc1c2cc3ccccc3cc2c(C#Cc2ccc(C(F)(F)F)cc2)c2cc3ccccc3cc12)(C(C)C)C(C)C

photoluminescence quantum yield (in CC#N): 0.956
SMILES: COc1ccc(-n2nc(C#N)c(NC3CCCCC3)n2)cc1

SMILES: CN(C)c1ccc(C(=O)Nc2cccc(Cl)c2)cc1
photoluminescence quantum yield (in C1CCCCC1): 0.0031 | photoluminescence quantum yield (in C1CCOC1): 0.0263 | photoluminescence quantum yield (in CC#N): 0.0319 | photoluminescence quantum yield (in CCOCC): 0.0103

photoluminescence quantum yield (in CN(C)C=O): 0.26
SMILES: CC(=O)NC(Cc1ccc(O)cc1)C(=O)O[Si]1(OC(=O)C(Cc2ccc(O)cc2)NC(C)=O)n2c3c4ccccc4c2/N=C2N=C(/N=c4/c5ccccc5/c(n41)=N/C1=NC(=N\3)/c3ccccc31)c1ccccc1\2 (stereo not drawn)

photoluminescence quantum yield (in C1CCCCC1): 0.78 | photoluminescence quantum yield (in C1COCCO1): 0.89 | photoluminescence quantum yield (in CC#N): 0.79 | photoluminescence quantum yield (in CCO): 0.86 | photoluminescence quantum yield (in CS(C)=O): 0.71 | photoluminescence quantum yield (in ClC(Cl)Cl): 0.77 | photoluminescence quantum yield (in ClCCl): 0.73
SMILES: COc1ccc(C#Cc2ccc(C#Cc3ccc(P(=O)(c4ccc(C#Cc5ccc(C#Cc6ccc(OC)cc6)cc5)cc4)c4ccc(C#Cc5ccc(C#Cc6ccc(OC)cc6)cc5)cc4)cc3)cc2)cc1

SMILES: Cn1ccc(-c2nc3ccccc3nc2/C=C/N2CCCC2)c1
photoluminescence quantum yield (in C1CCCCC1): 0.184 | photoluminescence quantum yield (in C1CCOC1): 0.495 | photoluminescence quantum yield (in CC#N): 0.33 | photoluminescence quantum yield (in CC(C)=O): 0.414 | photoluminescence quantum yield (in CCO): 0.022 | photoluminescence quantum yield (in CO): 0.006 | photoluminescence quantum yield (in CS(C)=O): 0.325 | photoluminescence quantum yield (in Cc1ccccc1): 0.469 | photoluminescence quantum yield (in ClCCl): 0.611

SMILES: CCCC1=Cc2nc1ccc1[nH]c(cc1CCC)c1nc(c(OC)cc3[nH]c2cc3CCC)C(CCC)=C1
photoluminescence quantum yield (in Cc1ccccc1): 0.18

SMILES: COc1ccc2c(c1)c1cc(OC)ccc1n2-c1nc2ccccc2nc1-n1c2ccc(OC)cc2c2cc(OC)ccc21
photoluminescence quantum yield (in Cc1ccccc1): 0.13

SMILES: CCCCCCN(CCCCCC)c1ccc(C#Cc2ccc(-c3ccc(C#Cc4ccc(N(CCCCCC)CCCCCC)cc4)cc3)cc2)cc1
photoluminescence quantum yield (in Cc1ccccc1): 0.87

photoluminescence quantum yield (in CC#N): 0.02 | photoluminescence quantum yield (in ClCCl): 0.03
SMILES: CNC(=O)[C@H](C)NC(=O)c1cccc2c1C#Cc1c(NC(=O)[C@@H](NC(C)=O)C(C)C)cccc1OCCCO2

photoluminescence quantum yield (in C1CCOC1): 0.46 | photoluminescence quantum yield (in CC#N): 0.46 | photoluminescence quantum yield (in CN(C)C=O): 0.75 | photoluminescence quantum yield (in ClCCl): 0.56 | photoluminescence quantum yield (in c1ccccc1): 0.49
SMILES: CCN1c2ccc(-c3cc(C(F)(F)F)[nH]n3)cc2Sc2cc(-c3cc(C(F)(F)F)[nH]n3)ccc21

photoluminescence quantum yield (in ClCCl): 0.68
SMILES: F[B-]1(F)n2c(Oc3ccccc3)c(Cl)c(Br)c2C(Oc2ccccc2)=C2C(Br)=C(Cl)C(Oc3ccccc3)=[N+]21

photoluminescence quantum yield (in ClCCl): 0.01
SMILES: CN(c1ccccc1)c1ccc(N(c2ccccc2)c2ccc3ccc4c(N(c5ccccc5)c5ccc(N(C)c6ccccc6)cc5)ccc5ccc2c3c54)cc1

photoluminescence quantum yield (in C1CCCCC1): 0.75
SMILES: N#Cc1cc(C#N)c(-c2ccc(N(c3ccccc3)c3ccccc3)cc2)cc1-c1ccc(N(c2ccccc2)c2ccccc2)cc1

photoluminescence quantum yield (in ClC(Cl)Cl): 0.64
SMILES: CCCC1=CC2=C(c3c(C)cc(C)cc3C)c3cc(CCC)c(-c4ccc5ccc6cccc7ccc4c5c67)n3[B-](F)(F)[N+]2=C1c1ccc2ccc3cccc4ccc1c2c34

photoluminescence quantum yield (in CCO): 0.44
SMILES: Cc1cc(C)c2cc3cc(C)ncc3cc2c1
